Measurements: publication PMC8023571, “Multiple Applications of a Novel Biarsenical Imaging Probe in Fluorescence and PET Imaging of Melanoma” (Bioconjugate Chemistry, 2021)

Key:
[1] = PET measurement of organ distribution in a nonhuman primate; type: in vivo, cynomolgus monkey; conditions: i.v.; NHP
Procedure: Second, high background affinity to any organ would severely hamper protein imaging in that organ. In order to test if 1 fulfilled these prerequisites, a […] dynamic PET measurement was performed after an intravenous injection of [^11C]CH3-1, with the upper body of a nonhuman primate subject (NHP) in the field of view. […] The high radioactivity in the liver and the low uptake in the brain likely prohibits the use of 1 for pretargeting in these organs. […] Blood samples were taken at multiple time points during the NHP PET measurements for the purpose of analyzing radiolabeled metabolites in plasma.
Figure 3 (a) Summation PET image of NHP showing the distribution of [^11C]CH3-1 from 3 to 60 min after intravenous injection. (b) Time–activity curves showing organ distribution following intravenous injection of [^11C]CH3-1.
Image- and Statistical Analysis
The acquired list mode data was reconstructed into […] (93 min scan = 4x10 s, 4x20 s, 4x60 s, 7x180 s, 11x360 s). The image reconstruction was made with a fully 3-dimensional maximum-likelihood expectation maximization algorithm (MLEM) with 20 iterations, without scatter and attenuation correction. […] The regional uptake values were expressed as standard uptake value (SUV), which normalizes for injected radioactivity and body weight. […]

[2] = system: Cys-Cys-Pro-Gly-Cys-Cys (CCPGCC) sequence; conditions: four As-S bonds with CCPGCC; cited from earlier work
Description: In 1998, Griffin et al. described a system for fluorescent imaging using a biarsenical fluorescein analogue system now widely known as FlAsH.[6] This system relied on a reversible soft Lewis acid–base reaction between As(III) and S(-II) of cysteine. […] Since this sequence is uncommon in natural proteins, it requires installation via genetic alteration of the organism where the protein is expressed; in small peptides, it can be introduced during chemical synthesis. However, as ...

Row | Compound | background radioactivity in lungs and heart [1] | binding constant [2]
1 | O=c1cc2oc3c([As]4SCCS4)c(O)ccc3c(-c3ccc(F)cc3)c-2cc1[As]1SCCS1 [compound 1] | intermediate background radioactivity | –
2 | O=C(O)c1ccccc1-c1c2ccc(=O)c([As]3SCCS3)c-2oc2c([As]3SCCS3)c(O)ccc12 [FlAsH] | – | high binding constant
